# Measurements from patent US20080255252A1, “Infectious Aetiology of Prostatic Disease and Methods to Identify Causative Agents” (Tissugen Pty. Ltd., priority 2004, published 2008).
# Test system: P. acnes Group 1, 2 and 3 isolates
# Assay: Growth of P. acnes isolates on semi-selective Brain Heart Infusion agar containing antibiotics
# Format: cell-based, Propionibacterium acnes
# Protocol: Brain Heart Infusion Agar (Oxoid Australia Ltd) was prepared containing 0.5% Tween 80 and adjusted to a pH of 6.0 using hydrochloric acid prior to autoclaving. […] Both antibiotics were prepared freshly immediately prior to use, and the agar plates were incubated at 37° C. for 24 hrs to ensure sterility then stored at 4° C. and used within 3 weeks of preparation.
# Inclusion of gentamicin as a selective agent and Tween 80 as a growth stimulant for P. acnes was previously discussed by Kishishita (1980).
substance,measurement,setting,value
gentamicin,growth of some strains of P. acnes Groups 2 and 3,at 6 μg/mL furazolidone and 4 μg/mL gentamicin in the semi-selective medium,noticeable growth inhibition
same,maximal concentration that allowed reasonable growth,"semi-selective agar, after 7 days of anaerobic incubation",4 µg/mL
